Laboratory results taken from the NIST ThermoML archive (doi:10.1016/j.tca.2015.05.015).
Numbers after ± are expanded uncertainties.

Experiments:
[1] = Molar enthalpy of transition or fusion; settings: Crystal; DSC
[2] = Crystal; DTA

Question: For `CCCCCCCCCCCCCCCCCC` [octadecane], which “Molar enthalpy of transition or fusion” value [1] is on record?
Answer: 14.2 ± 0.598 kcal/mol

Question: What about the Normal melting temperature [2] of the same molecule?
Answer: 25 ± 5 °C

Question: For `CCCCCCCCCCCCCCCC` [hexadecane], which “Molar enthalpy of transition or fusion” value [1] is on record?
Answer: 12 ± 0.55 kcal/mol

Question: And the Normal melting temperature [2]?
Answer: 17 ± 5 °C
